Reference: US20160354300A1, “Low Viscosity Hair Care Composition” (The Procter & Gamble Company, priority 2015, published 2016)

Assays:
[1] = Kinematic viscosity at 40 C of surfactant base formulation with added agent (Cannon viscometer); format: physicochemical; settings: for Lowest viscosity achieved (cSt): Table 1, base formulation 24% sodium undecyl sulfate, 6% lauramidopropyl betaine, 1.6% perfume, agent at 2%, 4%, 6%, 8%, 40° C.; for Kinematic viscosity at 40 C. [cSt], 2% oil: agent added at 2% to base formulation; for Kinematic viscosity at 40 C. [cSt], 4% oil: agent added at 4% to base formulation
Description: Referring to Tables 1 and 2, the base formulations were made by mixing 1.6% perfume, 24% sodium undecyl sulfate (CAS#1072-24-8) active, 6% lauramidopropyl betaine (CAS#4292-10-8) active and 60.4% deionized water which leaves 8% unfilled for the addition of a viscosity reducing agent (the balance being filled in by distilled water). For all compositions, the surfactant, water and additives including viscosity reducing agents were expected to be in a single phase.
The agents from Tables 1 and 2 were added to the base formulation at a percentage of 2%, 4%, 6%, and 8% into the above surfactant solution. The subsequent formulations were vortexed and put into oven at 60° C. overnight to form homogeneous solution. The viscosities of the formulations were measured with calibrated viscometers (Size 200/350/450) from Cannon Instrument Company (2139 High Tech Road, State College, Pa., USA, 16803).
After the equilibration, the formulations were drawn to reach the starting mark with a rubber suction bulb and the flow time between the starting mark and end mark was recorded for calculation. Each formulation was measured three times to calculate average and standard deviation. Between samples, viscometer was cleaned with water and acetone to rinse off residual.
Viscosity values were calculated based on the equation:
Viscosity (mm^2/s·(cSt))=Time (s)*Constant (mm^2/s^2·(cSt/s))
The time in the above equation is the flow time recorded in the experiment and the constant numbers for each calibrated viscometer were obtained from the manuals. […]
The viscosities of the formulations are measured with calibrated viscometers (Size 200/350/450) from Cannon Instrument Company (2139 High Tech Road, State College, Pa., USA, 16803). Prior to the measurement, the formulations are equilibrated in the viscometer reservoir for 30 min at 40° C. in water bath to ensure a homogeneous temperature is reached in the system. […]

[2] = Visual cloudiness of surfactant formulation with added agent after 20:1 dilution with water; format: physicochemical; set-up: key: Samples that appeared cloudy (turbid) within less than a day were noted as cloudy (“Yes”); Samples that did not appear cloudy (turbid) within less than a day were noted as not cloudy (“No”); settings: 0.5 g formula, 10 ml deionized water; for Cloudy at 1:20 dilution at 2%, 4%, and/or 6%: Table 3, visual, within less than a day; for Added at 2%: cloudy at 20:1 dilution: agent at 2%; for Added at 4%: cloudy at 20:1 dilution: agent at 4%
Method: Now referring to Tables 3 and 4, the following surfactant formulations were made by mixing 1.6% perfume, 24% sodium undecyl sulfate (CAS#1072-24-8) active, 6% lauramidopropyl betaine (CAS#4292-10-8) active, and 60.4% deionized water which leaves 8% unfilled for the addition of the listed agents (the balance being filled in by distilled water). The agents were added at a percentage of 2%, 4%, 6%, and 8% into the above surfactant formulation. The resulting formulations were vortexed and put into oven at 60° C. overnight to form homogeneous solution. For all formulations, the surfactant, water and additives, including the added agents, were expected to be in a single phase.
The resulting formulations were weighed out in a scintillation vial combined with 10 ml of water to achieve a representative dilution during use: 0.5 g formula, 10 ml deionized water for 20:1 dilution. After the combination of the ingredients, the vial was vigorously shaken by hand and the samples were visually inspected by looking at the solution against a dark background. Samples that appeared cloudy (turbid) within less than a day were noted as cloudy (“Yes”). […] Samples that appeared cloudy at the 20:1 dilution for any of the 2%, 4% or 6% concentration of oil may be most desirable by requiring a limited amount of the agent to be added, limiting cost and trade-offs associated with higher levels.
The appearance of a cloudy formulation at 1:20 dilution at 2%, 4%, and/or 6% can signal improved deposition of surfactant soluble active agents during consumer use.

SMILES | Lowest viscosity achieved (cSt) [1] [cSt] | Kinematic viscosity at 40 C. [cSt], 2% oil ([1]; 40 C) [cSt] | Kinematic viscosity at 40 C. [cSt], 4% oil ([1]; 40 C) [cSt] | Cloudy at 1:20 dilution at 2%, 4%, and/or 6% [2] | Added at 2%: cloudy at 20:1 dilution [2] | Added at 4%: cloudy at 20:1 dilution [2] | Kinematic viscosity at 40 C. [cSt], 6% oil ([1]; agent added at 6% to base formulation, 40 C) [cSt] | Added at 6%: cloudy at 20:1 dilution ([2]; agent at 6%) | Added at 8%: cloudy at 20:1 dilution ([2]; agent at 8%)
CC(C)CCOC(=O)c1ccccc1O [Isoamyl Salicylate] | 193 | 460.3 | 193.2 | Yes | No | Yes | – | – | –
CCCCCCCCCCCCCCCC [Hexadecane] | 18 | 21.1 | 18.1 | No | No | No | – | – | –
CC1=CCC(C(C)C)=CC1 [gamma-Terpinene] | 32 | 238.0 | 65.0 | Yes | No | No | 31.7 | Yes | Yes
CC(=O)OCCC(C)CCC=C(C)C (centres unmarked) [Citronellyl Acetate] | 363 | 362.7 | – | No | No | – | – | – | –
CCC(=O)OC1CC2CC1C1CC=CC21 (centres unmarked) [Cyclaprop] | 404 | 404.2 | – | No | No | No | – | – | –
CC(C)COC(=O)c1ccccc1O [Iso Butyl Salicylate] | 409 | 408.7 | – | No | No | No | – | – | –
